Target: T1, glucocorticoid receptor (Homo sapiens, UniProt P04150)
T1 construct: host or cells: HepG2
T1 sequence (P04150 1-777): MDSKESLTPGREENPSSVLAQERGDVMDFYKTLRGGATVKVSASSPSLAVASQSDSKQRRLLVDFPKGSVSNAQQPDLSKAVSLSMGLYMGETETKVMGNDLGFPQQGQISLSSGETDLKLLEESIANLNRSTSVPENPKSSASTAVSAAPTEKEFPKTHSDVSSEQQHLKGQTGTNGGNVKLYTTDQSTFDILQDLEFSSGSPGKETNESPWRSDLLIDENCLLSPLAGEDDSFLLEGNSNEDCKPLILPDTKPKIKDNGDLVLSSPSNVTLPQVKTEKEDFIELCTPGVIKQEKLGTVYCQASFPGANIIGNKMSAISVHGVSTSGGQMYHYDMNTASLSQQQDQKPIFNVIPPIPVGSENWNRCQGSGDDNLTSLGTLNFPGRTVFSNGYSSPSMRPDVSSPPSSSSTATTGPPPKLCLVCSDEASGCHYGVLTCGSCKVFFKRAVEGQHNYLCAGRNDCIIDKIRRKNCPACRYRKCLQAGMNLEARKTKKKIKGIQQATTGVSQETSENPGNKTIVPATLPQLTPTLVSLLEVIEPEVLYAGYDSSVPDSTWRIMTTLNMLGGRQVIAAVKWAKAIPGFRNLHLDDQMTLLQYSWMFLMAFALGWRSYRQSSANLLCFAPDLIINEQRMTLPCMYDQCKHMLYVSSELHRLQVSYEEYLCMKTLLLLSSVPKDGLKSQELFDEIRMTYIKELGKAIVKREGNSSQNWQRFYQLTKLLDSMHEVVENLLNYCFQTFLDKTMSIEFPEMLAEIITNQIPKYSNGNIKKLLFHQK
Test: Hep G2 TAT assay: induction of TAT by dexamethasone in HepG2 cells
Assay type: cell-based
Experimental: Glucocorticoid mediated activation of TAT occurs by transactivation of glucocorticoid response elements in the TAT promoter by glucocorticoid receptor-agonist complex.
TAT activity was measured as outlined in the literature by A. Ali et al., J. Med. Chem., 2004, 47, 2441-2452.
HepG2 cells were cultured using MEME media supplemented with 10% (v/v) foetal bovine serum; 2 mM L-glutamine and 1% (v/v) NEAA at 37° C., 5%/95% (v/v) CO2/air. The HepG2 cells were counted and adjusted to yield a density of 0.125×10^6 cells/ml in RPMI 1640 without phenol red, 10% (v/v) charcoal stripped FBS, 2 mM L-glutamine and seeded at 25,000 cells/well in 200 μl into 96 well, sterile, tissue culture micro titre plates, and incubated at 37° C., 5% CO2 for 24 hours
Growth media was removed and replaced with assay media {RPMI 1640 without phenol red, 2 mM L-glutamine+10 μM forskolin}. […] Compounds were serially half log diluted in 100% (v/v) dimethylsulphoxide from a 10 mM stock.
HepG2 cells were then lysed with 30 μl of cell lysis buffer containing a protease inhibitor cocktail for 15 minutes at 4° C. 155 μl of substrate mixture was then added containing 5.4 mM Tyrosine sodium salt, 10.8 mM alpha ketoglutarate and 0.06 mM pyridoxal 5′ phosphate in 0.1 M potassium phosphate buffer (pH 7.4). After 2 hours incubation at 37° C. the reaction was terminated by the addition of 15 μl of 10 M aqueous potassium hydroxide solution, and the plates incubated for a further 30 minutes at 37° C. The TAT activity product was measured by absorbance at λ 340 nm.
[compound] and fitting the data to a 4 parameter logistic equation.

| Structure (SMILES) | Ki |
| --- | --- |
| N#Cc1ccc(C2=CC[C@H](c3[nH]c(=O)[nH]c(=O)c3Cc3ccccc3)CC2)c(Cl)c1 (single isomer, unassigned) [Example 39] | 69 nM |
| N#Cc1ccc(C2=CC[C@@H](c3[nH]c(=O)[nH]c(=O)c3Cc3ccccc3)CC2)c(Cl)c1 (single isomer, unassigned) [Example 40] | 42 nM |
| O=c1[nH]c([C@H]2CC=C(c3ccc(Cl)cc3C(F)(F)F)CC2)c(Cc2ccccc2)c(=O)[nH]1 (single isomer, unassigned) [Example 109] | 30 nM |
| O=c1[nH]c([C@@H]2CC=C(c3ccc(Cl)cc3C(F)(F)F)CC2)c(Cc2ccccc2)c(=O)[nH]1 (single isomer, unassigned) [Example 110] | 38 nM |
| O=c1[nH]c(C2CC=C(c3cccc(Cl)c3Cl)CC2)c(Cc2ccccc2)c(=O)[nH]1 (centres unmarked) [Example 2] | 99 nM |
| O=c1[nH]c(C2CC=C(c3ccc(F)cc3)CC2)c(Cc2ccccc2)c(=O)[nH]1 (centres unmarked) [Example 3] | 460 nM |
| O=c1[nH]c(C2CC=C(c3cncs3)CC2)c(Cc2ccccc2)c(=O)[nH]1 (centres unmarked) [Example 4] | 1300 nM |
| N#Cc1ccccc1C1=CCC(c2[nH]c(=O)[nH]c(=O)c2Cc2ccccc2)CC1 (centres unmarked) [Example 5] | 120 nM |
| O=c1[nH]c(C2CC=C(c3ccc(Cl)cc3Cl)CC2)c(Cc2ccccc2)c(=O)[nH]1 (centres unmarked) [Example 6] | 65 nM |
| COc1cc(Cl)ccc1C1=CCC(c2[nH]c(=O)[nH]c(=O)c2Cc2ccccc2)CC1 (centres unmarked) [Example 7] | 38 nM |
| O=c1[nH]c(C2CC=C(c3ccccc3Cl)CC2)c(Cc2ccccc2)c(=O)[nH]1 (centres unmarked) [Example 8] | 52 nM |
| O=c1[nH]c(C2CC=C(c3ccc(F)cc3Cl)CC2)c(Cc2ccccc2)c(=O)[nH]1 (centres unmarked) [Example 9] | 26 nM |
| O=c1[nH]c(C2CC=C(c3ccccc3C(F)(F)F)CC2)c(Cc2ccccc2)c(=O)[nH]1 (centres unmarked) [Example 11] | 14 nM |
| COc1ccc(F)cc1C1=CCC(c2[nH]c(=O)[nH]c(=O)c2Cc2ccccc2)CC1 (centres unmarked) [Example 12] | 350 nM |
| Cc1ccccc1C1=CCC(c2[nH]c(=O)[nH]c(=O)c2Cc2ccccc2)CC1 (centres unmarked) [Example 13] | 83 nM |
| CS(=O)(=O)c1ccccc1C1=CCC(c2[nH]c(=O)[nH]c(=O)c2Cc2ccccc2)CC1 (centres unmarked) [Example 15] | 520 nM |
| O=c1[nH]c(C2CC=C(c3cccc(Cl)c3)CC2)c(Cc2ccccc2)c(=O)[nH]1 (centres unmarked) [Example 16] | 640 nM |
| COc1ccc(C2=CCC(c3[nH]c(=O)[nH]c(=O)c3Cc3ccccc3)CC2)c(C(F)(F)F)c1 (centres unmarked) [Example 17] | 280 nM |
| COc1ccccc1C1=CCC(c2[nH]c(=O)[nH]c(=O)c2Cc2ccccc2)CC1 (centres unmarked) [Example 18] | 260 nM |
| O=c1[nH]c(C2CC=C(c3c(Cl)cccc3Cl)CC2)c(Cc2ccccc2)c(=O)[nH]1 (centres unmarked) [Example 19] | 32 nM |
| Cc1ccc(F)cc1C1=CCC(c2[nH]c(=O)[nH]c(=O)c2Cc2ccccc2)CC1 (centres unmarked) [Example 21] | 270 nM |
| Cc1ccc(CO)cc1C1=CCC(c2[nH]c(=O)[nH]c(=O)c2Cc2ccccc2)CC1 (centres unmarked) [Example 22] | 330 nM |
| COc1ccc(C#N)cc1C1=CCC(c2[nH]c(=O)[nH]c(=O)c2Cc2ccccc2)CC1 (centres unmarked) [Example 23] | 330 nM |
| Cc1c(F)cccc1C1=CCC(c2[nH]c(=O)[nH]c(=O)c2Cc2ccccc2)CC1 (centres unmarked) [Example 24] | 33 nM |
| Cc1ncccc1C1=CCC(c2[nH]c(=O)[nH]c(=O)c2Cc2ccccc2)CC1 (centres unmarked) [Example 25] | 100 nM |
| O=c1[nH]c(C2CC=C(c3ccccc3OC(F)(F)F)CC2)c(Cc2ccccc2)c(=O)[nH]1 (centres unmarked) [Example 26] | 50 nM |
| N#Cc1ccc(Cl)c(C2=CCC(c3[nH]c(=O)[nH]c(=O)c3Cc3ccccc3)CC2)c1 (centres unmarked) [Example 27] | 210 nM |

| Structure (SMILES) | Ki |
| --- | --- |
| O=c1[nH]c(C2CC=C(c3cc(CO)ccc3Cl)CC2)c(Cc2ccccc2)c(=O)[nH]1 (centres unmarked) [Example 28] | 150 nM |
| COc1ccc(C2=CCC(c3[nH]c(=O)[nH]c(=O)c3Cc3ccccc3)CC2)c(Cl)c1 (centres unmarked) [Example 29] | 12 nM |
| Cc1ccncc1C1=CCC(c2[nH]c(=O)[nH]c(=O)c2Cc2ccccc2)CC1 (centres unmarked) [Example 30] | 50 nM |
| Cn1nccc1C1=CCC(c2[nH]c(=O)[nH]c(=O)c2Cc2ccccc2)CC1 (centres unmarked) [Example 31] | 120 nM |
| N#Cc1cccc(C2=CCC(c3[nH]c(=O)[nH]c(=O)c3Cc3ccccc3)CC2)c1 (centres unmarked) [Example 33] | 740 nM |
| O=c1[nH]c(C2CC=C(c3ccc(F)cc3C(F)(F)F)CC2)c(Cc2ccccc2)c(=O)[nH]1 (centres unmarked) [Example 34] | 23 nM |
| O=c1[nH]c(C2CC=C(c3cccc(Cl)c3C(F)(F)F)CC2)c(Cc2ccccc2)c(=O)[nH]1 (centres unmarked) [Example 35] | 59 nM |
| O=c1[nH]c(C2CC=C(c3cccc(C(F)(F)F)c3Cl)CC2)c(Cc2ccccc2)c(=O)[nH]1 (centres unmarked) [Example 36] | 110 nM |
| O=c1[nH]c(C2CC=C(c3ccc(C(F)(F)F)cc3F)CC2)c(Cc2ccccc2)c(=O)[nH]1 (centres unmarked) [Example 37] | 140 nM |
| N#Cc1cc(C(F)(F)F)ccc1C1=CCC(c2[nH]c(=O)[nH]c(=O)c2Cc2ccccc2)CC1 (centres unmarked) [Example 38] | 75 nM |
| CN1CCN(C(=O)c2ccc(C3=CCC(c4[nH]c(=O)[nH]c(=O)c4Cc4ccccc4)CC3)c(Cl)c2)CC1 (centres unmarked) [Example 41, 5-Benzyl-6-(2′-chloro-4′-(4-methylpiperazine-1-carbonyl)-2,3,4,5-tetrahydro-[1,1′-biphenyl]-4-yl)pyrimidine-2,4(1H,3H)-dione] | 480 nM |
| O=C(c1ccc(C2=CCC(c3[nH]c(=O)[nH]c(=O)c3Cc3ccccc3)CC2)c(Cl)c1)N1CCCC1 (centres unmarked) [Example 42, 5-Benzyl-6-(2′-chloro-4′-(pyrrolidine-1-carbonyl)-2,3,4,5-tetrahydro-[1,1′-biphenyl]-4-yl)pyrimidine-2,4(1H,3H)-dione] | 33 nM |
| O=c1[nH]c(C2CC=C(c3cccnc3N3CCCCC3)CC2)c(Cc2ccccc2)c(=O)[nH]1 (centres unmarked) [Example 43, 5-Benzyl-6-(4-(2-(piperidin-1-yl)pyridin-3-yl)cyclohex-3-en-1-yl)pyrimidine-2,4(1H,3H)-dione] | 150 nM |
| O=c1[nH]c(C2CC=C(c3cccnc3N3CCCC3)CC2)c(Cc2ccccc2)c(=O)[nH]1 (centres unmarked) [Example 44] | 45 nM |
| O=c1[nH]c(C2CC=C(c3cccnc3N3CCC(F)(F)CC3)CC2)c(Cc2ccccc2)c(=O)[nH]1 (centres unmarked) [Example 45] | 970 nM |
| CC1(C)CCCN(c2ncccc2C2=CCC(c3[nH]c(=O)[nH]c(=O)c3Cc3ccccc3)CC2)C1 (centres unmarked) [Example 46] | 300 nM |
| C[C@@H]1CCCN(c2ncccc2C2=CCC(c3[nH]c(=O)[nH]c(=O)c3Cc3ccccc3)CC2)C1 (some centres unmarked) [Example 47] | 400 nM |
| C[C@H]1CCCN(c2ncccc2C2=CCC(c3[nH]c(=O)[nH]c(=O)c3Cc3ccccc3)CC2)C1 (some centres unmarked) [Example 48] | 130 nM |
| CO[C@H]1CCCN(c2ncccc2C2=CCC(c3[nH]c(=O)[nH]c(=O)c3Cc3ccccc3)CC2)C1 (some centres unmarked) [Example 49] | 280 nM |
| Cc1ccc(C2=CCC(c3[nH]c(=O)[nH]c(=O)c3Cc3ccccc3)CC2)c(N2CCCC2)n1 (centres unmarked) [Example 50] | 14 nM |
| O=c1[nH]c(C2CC=C(c3cccnc3C(F)(F)F)CC2)c(Cc2cccc(N3CCCC3)n2)c(=O)[nH]1 (centres unmarked) [Example 51, 5-((6-(Pyrrolidin-1-yl)pyridin-2-yl)methyl)-6-(4-(2-(trifluoromethyl)pyridin-3-yl)cyclohex-3-en-1-yl)pyrimidine-2,4(1H,3H)-dione, formic acid] | 400 nM |
| CC(C)Oc1ccc(C2=CCC(c3[nH]c(=O)[nH]c(=O)c3Cc3ccccc3)CC2)c(Cl)c1 (centres unmarked) [Example 52] | 568 nM |
| CCOc1ccc(C2=CCC(c3[nH]c(=O)[nH]c(=O)c3Cc3ccccc3)CC2)c(C(F)(F)F)c1 (centres unmarked) [Example 53] | 51 nM |
| CCn1nccc1C1=CCC(c2[nH]c(=O)[nH]c(=O)c2Cc2ccccc2)CC1 (centres unmarked) [Example 54] | 1360 nM |
| CN(C)c1ncc(C2=CCC(c3[nH]c(=O)[nH]c(=O)c3Cc3ccccc3)CC2)cn1 (centres unmarked) [Example 55] | 1480 nM |
| Cc1nn(C)cc1C1=CCC(c2[nH]c(=O)[nH]c(=O)c2Cc2ccccc2)CC1 (centres unmarked) [Example 58] | 520 nM |

Source: patent publication US12018001B2, “Pyrimidine cyclohexenyl glucocorticoid receptor modulators” (priority 2018, dated 2024)
